11 molecules from PubChem BioAssay (NCI) can be followed below.

Where “and” joins values, the source holds several entries; their conditions need not be identical. Equal values may be shown once.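 Interpolation was linear, between the two tested concentrations surrounding the appropriate level; five concentrations were tested over 48 hours in 96-well plates. GI50 is the concentration that inhibits growth by half. At the TGI there is no net growth.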

Among the test systems are U251 CNS; M14 melanoma; SK-MEL-28 melanoma; SR leukemia; T-47D breast; OVCAR-3 ovarian; ACHN renal; CAKI-1 renal; MDA-MB-231 breast; SW-620 colon.
What all share (assay): DTP human tumour cell line panel, 48 h

What is called GI50 is the concentration giving 50% growth inhibition. For orientation: TGI means the concentration at which net growth stops. Read a high TGI as less potent growth arrest. As for `Nc1c(C(=O)Nc2cccc3ccccc23)sc2nc3c(cc12)C(=O)CCC3`, the 50% growth inhibitory concentration (GI50) in the test on U251 CNS is 0.266 µM; with M14 melanoma it was 0.24 µM; with SK-MEL-28 melanoma, 0.341 µM; with SR leukemia it was 0.38 µM; in the test with T-47D breast, 0.759 µM; in the test with OVCAR-3 ovarian, 0.229 µM. For the same molecule, the GI50 with ACHN renal is 0.341 µM; in the test on CAKI-1 renal it was 0.359 µM; in the test on MDA-MB-231 breast it was 0.379 µM; with SW-620 colon it was 0.222 µM. For the same molecule, the concentration for total growth inhibition (TGI) was more than 100 µM in the test with M14 melanoma; 53.4 µM in the test on SK-MEL-28 melanoma; more than 100 µM in the test on SR leukemia; more than 100 µM in the test on T-47D breast; 0.696 µM in the test with OVCAR-3 ovarian; more than 58.2 µM in the test with ACHN renal. Further, the values for the TGI in the test on CAKI-1 renal, with MDA-MB-231 breast and with SW-620 colon were more than 100 µM, 6.92 µM and more than 100 µM, respectively.
In the case of `COc1cc(Cn2c(-c3ccccc3)cc3c2-c2oncc2CC3)cc(OC)c1`, the GI50 was 0.427 µM in the test on U251 CNS; 0.299 µM in the test on M14 melanoma; 0.416 µM in the test with SK-MEL-28 melanoma; 0.308 µM in the test with SR leukemia; more than 100 µM with T-47D breast; 0.204 µM in the test with OVCAR-3 ovarian. Moreover, the GI50 with ACHN renal was 0.786 µM; in the test with CAKI-1 renal, 0.354 µM; in the test on MDA-MB-231 breast, 0.694 µM; in the test on SW-620 colon, 0.36 µM. In addition, the TGI in the test on U251 CNS is more than 100 µM; in the test with SK-MEL-28 melanoma it was more than 100 µM; in the test on SR leukemia, more than 40.7 µM; in the test with T-47D breast it was more than 100 µM; in the test with OVCAR-3 ovarian, 0.477 µM; with ACHN renal, more than 100 µM. Moreover, the TGI in the test on CAKI-1 renal is more than 100 µM; in the test on MDA-MB-231 breast, more than 24.2 µM; in the test on SW-620 colon it was more than 100 µM.
With `NS(=O)(=O)c1ccc(NC(=O)c2cccc(NC3=C(Cl)C(=O)N(Cc4ccccc4)C3=O)c2)cc1`, the GI50 in the test with U251 CNS is 5.18 µM; in the test with M14 melanoma, 15.8 µM; with SK-MEL-28 melanoma it was 20 µM; with SR leukemia, 0.323 µM; with T-47D breast, 33.7 µM; in the test with OVCAR-3 ovarian it was 12.4 µM. In addition, the GI50 with ACHN renal is 14.7 µM; in the test with CAKI-1 renal it was 12.5 µM; with MDA-MB-231 breast, 6.93 µM; with SW-620 colon, 6.1 µM. In addition, the TGI is 19.6 µM in the test on U251 CNS; 38.7 µM in the test on M14 melanoma; 42.9 µM in the test on SK-MEL-28 melanoma; 1.73 µM in the test with SR leukemia; more than 100 µM in the test with T-47D breast; 27 µM with OVCAR-3 ovarian. Also, the total growth inhibition concentration (TGI) with ACHN renal was determined as 33.2 µM; with CAKI-1 renal, 25.9 µM; in the test with MDA-MB-231 breast it was 37 µM; in the test on SW-620 colon it was 44.4 µM.
For H-QIYKKYRTWYRKAWKVLGKV-NH2, the GI50 in the test on U251 CNS is 12 µM; in the test on M14 melanoma it was 3.06 µM; in the test on SK-MEL-28 melanoma it was 4.89 µM; with SR leukemia it was 3.58 µM; in the test on T-47D breast, 2.06 µM; in the test on OVCAR-3 ovarian it was 4.3 µM. For the same molecule, the GI50 is 12 µM with ACHN renal, 3.89 µM with CAKI-1 renal, 4.35 µM in the test on MDA-MB-231 breast and 13 µM with SW-620 colon. In addition, the TGI in the test on U251 CNS is more than 100 µM; in the test with M14 melanoma it was 14.1 µM; with SK-MEL-28 melanoma, 22.5 µM; in the test on SR leukemia it was more than 100 µM; in the test on T-47D breast it was 5.2 µM; with OVCAR-3 ovarian, 22.3 µM. Besides, the TGI with ACHN renal was 25.5 µM; in the test with CAKI-1 renal, 19 µM; with MDA-MB-231 breast, 17.9 µM; with SW-620 colon, 43.6 µM.
With `NNC(=O)C(O)C(O)C(=O)NN` (stereo not drawn), the TGI in the test on U251 CNS, with M14 melanoma, in the test on SK-MEL-28 melanoma, in the test on SR leukemia, in the test with T-47D breast and in the test on OVCAR-3 ovarian was more than 100 µM throughout. The concentration for total growth inhibition (TGI) in the test on ACHN renal, in the test with CAKI-1 renal, in the test with MDA-MB-231 breast and with SW-620 colon was more than 100 µM throughout.
With `O=C(NOCCO)c1cc(CN2OCCCC2=O)c(F)c(F)c1Nc1ccc(I)cc1F`, the concentration for 50% growth inhibition (GI50) was 0.362 µM and 0.479 µM with U251 CNS; < 0.01 µM and 0.00226 µM in the test with M14 melanoma; < 0.01 µM and 0.00249 µM with SK-MEL-28 melanoma; 19.9 µM and > 10 µM in the test on SR leukemia; 29.4 µM and > 10 µM in the test on T-47D breast; 28.9 µM and > 10 µM in the test on OVCAR-3 ovarian. Also, the GI50 was 4.28 µM in the test on ACHN renal; 0.29 µM in the test with CAKI-1 renal; 0.243 µM and 0.116 µM in the test with MDA-MB-231 breast; < 0.01 µM and 0.00529 µM in the test on SW-620 colon. Moreover, the TGI is 23.8 µM and > 10 µM with U251 CNS; 0.0237 µM with M14 melanoma; 0.0712 µM and 0.124 µM in the test with SK-MEL-28 melanoma; more than 100 µM in the test with SR leukemia; more than 100 µM with T-47D breast; 98.7 µM and > 10 µM with OVCAR-3 ovarian. Further, the TGI was more than 100 µM with ACHN renal; more than 40.5 µM with CAKI-1 renal; 62.2 µM and > 10 µM with MDA-MB-231 breast; more than 100 µM in the test on SW-620 colon.
Consider `Cc1cc(Nc2nc(-c3ccncc3)nc3ccccc23)n[nH]1`, for which the GI50 is 4.1 µM in the test with U251 CNS; 10.3 µM with M14 melanoma; 88.8 µM in the test with SK-MEL-28 melanoma; 1.72 µM in the test with SR leukemia; 5 µM with T-47D breast; 9.26 µM in the test with OVCAR-3 ovarian. The GI50 is 1.06 µM in the test on ACHN renal, 0.58 µM with CAKI-1 renal, 14.7 µM with MDA-MB-231 breast and 3.71 µM in the test on SW-620 colon. Also, the TGI is more than 100 µM in the test on U251 CNS; more than 100 µM in the test with M14 melanoma; more than 100 µM in the test on SK-MEL-28 melanoma; 47.7 µM in the test with SR leukemia; more than 100 µM in the test with T-47D breast; more than 100 µM in the test with OVCAR-3 ovarian. Moreover, the total growth inhibition concentration (TGI) in the test on ACHN renal, in the test with CAKI-1 renal, in the test on MDA-MB-231 breast and in the test on SW-620 colon was more than 100 µM each time.
Consider `C=CC(C)(O)CC/C=C(\CO)C(=O)OC1C(C)OC(O[C@](C)(C=C)CC/C=C(\CO)C(=O)O[C@H]2C[C@@]3(C(=O)OC4OC(CO)C(O)C(O)C4OC4OC(C)C(OC5OC(CO)C(O)C5O)C(OC5OC(CO)C(O)C(O)C5O)C4O)C(CC2(C)C)C2=CCC4[C@@]5(C)CC[C@H](OC6OC(COC7OC(C)C(O)C(O)C7OC7OCC(O)C(O)C7O)C(O)C(O)C6NC(C)=O)C(C)(C)C5CC[C@@]4(C)[C@]2(C)C[C@H]3O)C(O)C1O` (stereo partly drawn), for which the concentration for 50% growth inhibition (GI50) in the test on U251 CNS is 0.101 µM; in the test with M14 melanoma, 0.62 µM; in the test on SK-MEL-28 melanoma, 0.0852 µM; in the test on SR leukemia, 1.59 µM; with T-47D breast, 0.155 µM; with OVCAR-3 ovarian it was 0.0947 µM. The GI50 in the test on ACHN renal is 0.0771 µM; in the test on CAKI-1 renal it was 0.196 µM; in the test with MDA-MB-231 breast it was 0.0722 µM; in the test on SW-620 colon, 0.143 µM. Moreover, the TGI amounted to 0.45 µM with U251 CNS; 2.29 µM with M14 melanoma; 0.248 µM with SK-MEL-28 melanoma; 15.1 µM in the test with SR leukemia; 0.739 µM with T-47D breast; 0.344 µM in the test with OVCAR-3 ovarian. Besides, the TGI in the test on ACHN renal came out at 0.209 µM; in the test with CAKI-1 renal, 0.916 µM; in the test with MDA-MB-231 breast, 0.39 µM; in the test with SW-620 colon it was 4.27 µM.
Turning to `CC(N1CCOCC1)C(O)(c1ccccc1)c1ccccn1` (stereo not drawn), the TGI in the test on U251 CNS, in the test on M14 melanoma, in the test on SK-MEL-28 melanoma, in the test with SR leukemia, in the test on T-47D breast and with OVCAR-3 ovarian was more than 100 µM throughout. The TGI in the test on ACHN renal, in the test with CAKI-1 renal, in the test with MDA-MB-231 breast and with SW-620 colon was more than 100 µM each time.
Regarding `O=C1/C(=C\c2ccccc2)C2OCC=C3CN4CCC56c7ccccc7N1C5C2C3CC46` (stereo not drawn), the GI50 is 13.1 µM with U251 CNS; 1.94 µM in the test with M14 melanoma; 2.61 µM in the test on SK-MEL-28 melanoma; 2.65 µM in the test with SR leukemia; 64.8 µM in the test with T-47D breast; 36.5 µM with OVCAR-3 ovarian. For the same molecule, the GI50 was 7.98 µM in the test with ACHN renal, 2.18 µM with CAKI-1 renal, 6.92 µM in the test with MDA-MB-231 breast and more than 100 µM with SW-620 colon. Besides, the concentration for total growth inhibition (TGI) in the test with U251 CNS is more than 100 µM; with M14 melanoma it was 3.72 µM; in the test with SK-MEL-28 melanoma, 5.44 µM; in the test with SR leukemia, 8.76 µM; in the test on T-47D breast it was more than 100 µM; in the test on OVCAR-3 ovarian, more than 100 µM. The TGI was more than 100 µM with ACHN renal, 32.1 µM with CAKI-1 renal, more than 100 µM in the test with MDA-MB-231 breast and more than 100 µM in the test with SW-620 colon.
In the case of `O=C(/C=C/c1ccc([N+](=O)[O-])cc1)c1cccc(Nc2nc(Nc3ccccc3)nc(Nc3ccccc3)n2)c1`, the GI50 was 12 µM in the test with U251 CNS; 21.6 µM with M14 melanoma; 12.5 µM in the test on SK-MEL-28 melanoma; 0.484 µM in the test on SR leukemia; 9.75 µM in the test on T-47D breast; 11.3 µM in the test on OVCAR-3 ovarian. The GI50 in the test with ACHN renal was 27 µM; in the test on CAKI-1 renal, 25.2 µM; with MDA-MB-231 breast, 10.7 µM; in the test on SW-620 colon, 4.08 µM. For the same molecule, the TGI is more than 100 µM in the test with U251 CNS; 90.6 µM in the test on M14 melanoma; 40.1 µM in the test on SK-MEL-28 melanoma; 6.92 µM in the test on SR leukemia; more than 100 µM with T-47D breast; 63.4 µM in the test with OVCAR-3 ovarian. The concentration for total growth inhibition (TGI) in the test on ACHN renal is more than 100 µM; in the test on CAKI-1 renal it was more than 100 µM; in the test on MDA-MB-231 breast it was 41.9 µM; in the test with SW-620 colon it was 65.9 µM.
